Reference: US11584775B2, “C4-modified oleanolic acid derivatives for inhibition of IL-17 and other uses” (REATA PHARMACEUTICALS, INC., priority 2015, dated 2023)

Assays:
[1] = tested on: IFNγ-induced Nitric Oxide production; test: Nitric oxide production assay in RAW 264.7 mouse macrophages; assay type: cell-based; details: RAW264.7, suppression of IFNγ-induced NO production normalized to cell viability (WST-1), RAW 264.7, 24 hours IFNγ
Method in brief: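 Cells pre-treated 2 h with compound (0.4-200 nM or 2-1000 nM) in RPMI 1640 + 0.5% FBS, then stimulated with recombinant mouse IFNγ for 24 h at 37 °C. Nitrite measured by Griess reagent, viability by WST-1; IC50 from NO suppression normalized to viability and to DMSO/IFNγ controls.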

human RORγ = biological target: T1, human RORγ (Homo sapiens, UniProt P51449); test: RORγ assay (GAL4-RORγ hybrid luciferase reporter, inverse-agonist activity); assay type: cell-based; details: GAL4-RORγ hybrid reporter cells, 23 hours
T1 sequence (P51449 269-508 limits assumed): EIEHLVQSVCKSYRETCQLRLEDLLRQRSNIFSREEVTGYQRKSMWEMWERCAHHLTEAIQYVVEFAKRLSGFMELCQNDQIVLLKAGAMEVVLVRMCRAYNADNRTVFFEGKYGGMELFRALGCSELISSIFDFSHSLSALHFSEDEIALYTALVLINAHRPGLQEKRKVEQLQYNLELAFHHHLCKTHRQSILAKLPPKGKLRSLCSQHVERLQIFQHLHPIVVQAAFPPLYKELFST
Method in brief: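 Human cell line expressing GAL4-DBD/RORγ hybrid with UAS-driven luciferase, treated in triplicate with compound (0.4–200 nM or 2–1000 nM) for 23 h at 37 °C. Luminescence normalized to DMSO; viability measured in parallel by multiplex assay. IC50 for RORγ and viability by variable-slope nonlinear regression.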

hIL17 = test: IL-17 release from differentiated primary human T-cells (IL-17A HTRF assay); assay type: cell-based; details: inhibition of IL-17A levels; primary human CD4+ T cells differentiated into Th17 cells, 46-hour incubation
Method in brief: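 Cryopreserved primary human CD4+ T cells were activated with anti-CD3/CD28 beads and driven to Th17 with TGF-β, IL-6, IL-23 and IL-1β in the presence of compound (2-500 nM or 4-1000 nM) for 46 h at 37° C. Supernatant IL-17A was quantified by HTRF against a standard curve and normalized to DMSO. IC50s came from variable-slope fits, with viability read by CyQuant.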

NRF2 = test: AREc32 luciferase reporter assay; assay type: cell-based, human; details: EC2×: concentration required to increase GST ARE Luciferase reporter activity by 2-fold; AREc32 cells, 19 hours
Method in brief: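 AREc32 cells (MCF-7 stably carrying eight rat GSTA2 ARE copies driving firefly luciferase) treated 19 h with compound (0.4–200 nM or 2–1000 nM), triplicate. Luminescence normalized to DMSO as fold-induction; variable-slope fit capped at 50-fold; EC2× = concentration giving 2-fold induction.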

With COC(=O)[C@]12CCC(C)(C)C[C@H]1[C@H]1C(=O)C=C3[C@@]4(C)C=C(C#N)C(=O)[C@@](C)(c5nnc(C)o5)[C@@H]4CC[C@@]3(C)[C@]1(C)CC2 [Compound T16, methyl (4aS,6aR,6bS,8aR,9R,12aS,14aR,14bS)-11-cyano-2,2,6a,6b,9,12a-hexamethyl-9-(5-methyl-1,3,4-oxadiazol-2-yl)-10,14-dioxo-1,3,4,5,6,6a,6b,7,8,8a,9,10,12a,14,14a,14b-hexadecahydropicene-4a(2H)-carboxylate] the IC50 [1] was 615 nM, the IC50 (human RORγ) was 406 nM and the IC50 (hIL17) was 92 nM. For the same molecule, the “EC2x: concentration giving 2-fold induction of ARE luciferase reporter” value (NRF2) was over 1000 nM.

COCC[C@]1(C)C(=O)C(C#N)=C[C@]2(C)C3=CC(=O)[C@@H]4[C@@H]5CC(C)(C)CC[C@]5(C(=O)OC)CC[C@@]4(C)[C@]3(C)CC[C@H]21 [Compound T17, methyl (4aS,6aR,6bS,8aR,9S,12aS,14aR,14bS)-11-cyano-9-(2-methoxyethyl)-2,2,6a,6b,9,12a-hexamethyl-10,14-dioxo-1,3,4,5,6,6a,6b,7,8,8a,9,10,12a,14,14a,14b-hexadecahydropicene-4a(2H)-carboxylate] gave an IC50 [1] of 19.5 nM, an IC50 (human RORγ) of 250 nM and an IC50 (hIL17) of 30 nM. The “EC2x: concentration giving 2-fold induction of ARE luciferase reporter” value (NRF2) was 64 nM.

In the case of COC(=O)[C@]12CCC(C)(C)C[C@H]1[C@H]1C(=O)C=C3[C@@]4(C)C=C(C#N)C(=O)[C@@](C)(CCO[Si](C)(C)C(C)(C)C)[C@@H]4CC[C@@]3(C)[C@]1(C)CC2 [Compound T18, methyl (4aS,6aR,6bS,8aR,9S,12aS,14aR,14bS)-9-(2-((tert-butyldimethylsilyl)oxy)ethyl)-11-cyano-2,2,6a,6b,9,12a-hexamethyl-10,14-dioxo-1,3,4,5,6,6a,6b,7,8,8a,9,10,12a,14,14a, 14b-hexadecahydropicene-4a(2H)-carboxylate], the IC50 [1] is reported as 78.5 nM, the IC50 (human RORγ) is reported as 583 nM and the IC50 (hIL17) is reported as 24 nM. The “EC2x: concentration giving 2-fold induction of ARE luciferase reporter” value (NRF2) was 585 nM.

With COC(=O)[C@]12CCC(C)(C)C[C@H]1[C@H]1C(=O)C=C3[C@@]4(C)C=C(C#N)C(=O)[C@@](C)(CCO)[C@@H]4CC[C@@]3(C)[C@]1(C)CC2 [Compound T19] the IC50 [1] was 17.4 nM, the IC50 (human RORγ) was 233 nM and the IC50 (hIL17) was 15 nM. For the same molecule, the “EC2x: concentration giving 2-fold induction of ARE luciferase reporter” value (NRF2) was 76 nM.

In the case of COC[C@]1(C)C(=O)C(C#N)=C[C@]2(C)C3=CC(=O)[C@@H]4[C@@H]5CC(C)(C)CC[C@]5(C(=O)OC)CC[C@@]4(C)[C@]3(C)CC[C@H]21 [Compound T20], the IC50 [1] is reported as 15.6 nM, the IC50 (human RORγ) is reported as 223 nM and the IC50 (hIL17) is reported as 21 nM. The “EC2x: concentration giving 2-fold induction of ARE luciferase reporter” value (NRF2) was 175 nM.

Work on COC(=O)C[C@]1(C)C(=O)C(C#N)=C[C@]2(C)C3=CC(=O)[C@@H]4[C@@H]5CC(C)(C)CC[C@]5(C(=O)OC)CC[C@@]4(C)[C@]3(C)CC[C@H]21 [Compound T21, methyl (4aS,6aR,6bS,8aR,9S,12aS,14aR,14bS)-11-cyano-9-(2-methoxy-2-oxoethyl)-2,2,6a,6b,9,12a-hexamethyl-10,14-dioxo-1,3,4,5,6,6a,6b,7,8,8a,9,10,12a,14,14a,14b-hexadecahydropicene-4a(2H)-carboxylate] yielded an IC50 [1] of 105 nM, an IC50 (human RORγ) of 203 nM and an IC50 (hIL17) of 33 nM. The “EC2x: concentration giving 2-fold induction of ARE luciferase reporter” value (NRF2) was 269 nM.

Molecule CC1(C)CC[C@]2(C(=O)NCC(F)(F)F)CC[C@]3(C)[C@H](C(=O)C=C4[C@@]5(C)C=C(C#N)C(=O)[C@@](C)(CO)[C@@H]5CC[C@]43C)[C@@H]2C1 [Compound T22, (4aS,6aR,6bS,8aR,9R,12aS,14aR,14bS)-11-cyano-9-(hydroxymethyl)-2,2,6a,6b,9,12a-hexamethyl-10,14-dioxo-N-(2,2,2-trifluoroethyl)-1,3,4,5,6,6a,6b,7,8,8a,9,10,12a,14,14a,14b-hexadecahydropicene-4a(2H)-carboxamide] has an IC50 [1] of 13.5 nM, an IC50 (human RORγ) of 256 nM and an IC50 (hIL17) of 50 nM. The “EC2x: concentration giving 2-fold induction of ARE luciferase reporter” value (NRF2) was 103 nM.

Work on CC(=O)OC[C@]1(C)C(=O)C(C#N)=C[C@]2(C)C3=CC(=O)[C@@H]4[C@@H]5CC(C)(C)CC[C@]5(C(=O)NCC(F)(F)F)CC[C@@]4(C)[C@]3(C)CC[C@H]21 [Compound T23, ((4R,4aR,6aS,6bR,8aS,12aS,12bR,14bS)-2-cyano-4,6a,6b, 11,11,14b-hexamethyl-3,13-dioxo-8a-((2,2,2-trifluoroethyl)carbamoyl)-3,4,4a,5,6,6a,6b,7,8,8a,9,10,11,12,12a,12b,13,14b-octadecahydropicen-4-yl)methyl acetate] yielded an IC50 [1] of 150 nM, an IC50 (human RORγ) of 145 nM and an IC50 (hIL17) of 68 nM. The “EC2x: concentration giving 2-fold induction of ARE luciferase reporter” value (NRF2) was 484 nM.

CC1(C)CC[C@]2(C(=O)NCC(F)(F)F)CC[C@]3(C)[C@H](C(=O)C=C4[C@@]5(C)C=C(C#N)C(=O)[C@@](C)(O)[C@@H]5CC[C@]43C)[C@@H]2C1 [Compound T24, (4aS,6aR,6bS,8aR,9S,12aS,14aR,14bS)-11-cyano-9-hydroxy-2,2,6a,6b,9,12a-hexamethyl-10,14-dioxo-N-(2,2,2-trifluoroethyl)-1,3,4,5,6,6a,6b,7,8,8a,9,10,12a,14,14a,14b-hexadecahydropicene-4a(2H)-carboxamide] gave an IC50 [1] of 184 nM, an IC50 (human RORγ) of 197 nM and an IC50 (hIL17) of 37 nM. The “EC2x: concentration giving 2-fold induction of ARE luciferase reporter” value (NRF2) was 406 nM.

Molecule CCNC(=O)[C@]12CCC(C)(C)C[C@H]1[C@H]1C(=O)C=C3[C@@]4(C)C=C(C#N)C(=O)[C@@](C)(O)[C@@H]4CC[C@@]3(C)[C@]1(C)CC2 [Compound T26, (4aS,6aR,6bS,8aR,9S,12aS,14aR,14bS)-11-cyano-N-ethyl-9-hydroxy-2,2,6a,6b,9,12a-hexamethyl-10,14-dioxo-1,3,4,5,6,6a,6b,7,8,8a,9,10,12a,14,14a,14b-hexadecahydropicene-4a(2H)-carboxamide] has an IC50 [1] of 370 nM, an IC50 (human RORγ) of 292 nM and an IC50 (hIL17) of 132 nM. The “EC2x: concentration giving 2-fold induction of ARE luciferase reporter” value (NRF2) was 463 nM.

Molecule CC1(C)CC[C@]2(NC(=O)C(C)(F)F)CC[C@]3(C)[C@H](C(=O)C=C4[C@@]5(C)C=C(C#N)C(=O)[C@@](C)(O)[C@@H]5CC[C@]43C)[C@@H]2C1 [Compound T27, N-((4aS,6aR,6bS,8aR,9S,12aS,14aR,14bS)-11-cyano-9-hydroxy-2,2,6a,6b,9,12a-hexamethyl-10,14-dioxo-1,3,4,5,6,6a,6b,7,8,8a,9,10,12a,14,14a,14b-hexadecahydropicen-4a(2H)-yl)-2,2-difluoropropanamide] has an IC50 [1] of 146 nM, an IC50 (human RORγ) of 410 nM and an IC50 (hIL17) of 62 nM. The “EC2x: concentration giving 2-fold induction of ARE luciferase reporter” value (NRF2) was 396 nM.

With CC1(C)CC[C@]2(NC(=O)C(C)(F)F)CC[C@]3(C)[C@H](C(=O)C=C4[C@@]5(C)C=C(C#N)C(=O)[C@@](C)(CO)[C@@H]5CC[C@]43C)[C@@H]2C1 [Compound T28, N-((4aS,6aR,6bS,8aR,9R,12aS,14aR,14bS)-11-cyano-9-(hydroxymethyl)-2,2,6a,6b,9,12a-hexamethyl-10,14-dioxo-1,3,4,5,6,6a,6b,7,8,8a,9,10,12a,14,14a,14b-hexadecahydropicen-4a(2H)-yl)-2,2-difluoropropanamide] the IC50 [1] was 21.1 nM, the IC50 (human RORγ) was 463 nM and the IC50 (hIL17) was 67 nM. For the same molecule, the “EC2x: concentration giving 2-fold induction of ARE luciferase reporter” value (NRF2) was 117 nM.

CC(=O)OC[C@]1(C)C(=O)C(C#N)=C[C@]2(C)C3=CC(=O)[C@@H]4[C@@H]5CC(C)(C)CC[C@]5(NC(=O)C(C)(F)F)CC[C@@]4(C)[C@]3(C)CC[C@H]21 [Compound T29, ((4R,4aR,6aS,6bR,8aS,12aS,12bR,14bS)-2-cyano-8a-(2,2-difluoropropanamido)-4,6a,6b,11,11,14b-hexamethyl-3,13-dioxo-3,4,4a,5,6,6a,6b,7,8,8a,9,10,11,12,12a,12b,13,14b-octadecahydropicen-4-yl)methyl acetate] showed an IC50 [1] of 118 nM, an IC50 (human RORγ) of 141 nM and an IC50 (hIL17) of 37 nM. The “EC2x: concentration giving 2-fold induction of ARE luciferase reporter” value (NRF2) was 360 nM.

CN(C)C(=O)[C@]12CCC(C)(C)C[C@H]1[C@H]1C(=O)C=C3[C@@]4(C)C=C(C#N)C(=O)[C@@](C)(O)[C@@H]4CC[C@@]3(C)[C@]1(C)CC2 [Compound T30, (4aS,6aR,6bS,8aR,9S,12aS,14aR,14bS)-11-cyano-9-hydroxy-N,N,2,2,6a,6b,9,12a-octamethyl-10,14-dioxo-1,3,4,5,6,6a,6b,7,8,8a,9,10,12a,14,14a,14b-hexadecahydropicene-4a(2H)-carboxamide] was tested, and the IC50 [1] was 173 nM, the IC50 (human RORγ) was 164 nM and the IC50 (hIL17) was 59 nM. The “EC2x: concentration giving 2-fold induction of ARE luciferase reporter” value (NRF2) was 448 nM.
